These results are taken from article PMC2912279, “Calycosin Promotes Angiogenesis Involving Estrogen Receptor and Mitogen-Activated Protein Kinase (MAPK) Signaling Pathway in Zebrafish and HUVEC” (PLoS ONE, 2010).

Series [1] concerns subintestinal vein vessels (SIVs) of Tg(fli1:EGFP) zebrafish embryos. The series is described as follows: Blood vessel formation (SIV diameter/morphology) in Tg(fli1:EGFP) zebrafish embryos. The series is classed as in vivo. To be noted: for angiogenic effect in SIVs, comparison with classical SERMs: raloxifene 10 µM, tamoxifen 3 µM, 17-βEstradiol 10 µM, calycosin 100 µM. The method, then:
Zebrafish embryos were generated by natural pair-wise mating (3–12 months old) and were raised at 28.5°C in embyro water. Healthy, hatched zebrafish were picked out at 3 dpf and distributed into a 12-well microplate with 10 to 15 fish in each well. […] Embryos receiving DMSO (0.1%) served as vehicle controls and were equivalent to no treatment. Each experiment was repeated at least three times, with 30 embryos per group. VTKI was dissolved in DMSO as stock. Zebrafish embryos, Tg(fli-1:EGFP) and Tg(fli-1:nEGFP), were treated with inhibitor dissolved in embryo water from 3 dpf at the concentration indicated, controlled by DMSO treated embryos. Embryos were maintained using standard methods.
(§1) At 96 hpf, zebrafish were removed from microplates and observed for viability and gross morphological changes under a fluorescence microscope (Olympus IX81 Motorized Inverted Microscope, Japan) equipped with a digital camera (DP controller, Soft Imaging System, Olympus). Images were analyzed with Axiovision 4.2 and Adobe Photoshop 7.0.
Three random points in SIVs of Tg(fli1:EGFP) zebrafish embryos were chosen for vessel diameter measurement using AxiovisionLE 4.1. Numbers of endothelial cells in SIVs of Tg(fli1:nEGFP) zebrafish embryos were assessed by direct counting of the total number of green light points. Each green light point represents one endothelial cell (GFP+).

The next series deals with zebrafish embryos. The series is described as follows: Toxicity (highest non-toxic dose) in zebrafish embryos. The class given is in vivo. To be noted: 72 hpf for 24 h. The method, then:
(§2) Zebrafish embryos were generated by natural pair-wise mating (3–12 months old) and were raised at 28.5°C in embyro water. Healthy, hatched zebrafish were picked out at 3 dpf and distributed into a 12-well microplate with 10 to 15 fish in each well. Different concentrations (10, 30, 100 µM) of calycosin, raloxifene or tamoxifen solutions were then added to wells and incubated at 28°C for 24 h. Embryos receiving DMSO (0.1%) served as vehicle controls and were equivalent to no treatment. Each experiment was repeated at least three times, with 30 embryos per group. VTKI was dissolved in DMSO as stock. Zebrafish embryos, Tg(fli-1:EGFP) and Tg(fli-1:nEGFP), were treated with inhibitor dissolved in embryo water from 3 dpf at the concentration indicated, controlled by DMSO treated embryos. Embryos were maintained using standard methods.
as §1

The next series deals with HUVEC. In words: HUVEC viability/proliferation by XTT assay. The class given is cell-based, Human. To be noted: P<0.05. On the technique in general: Tetrazolium assays rely on reduction of a dye to a coloured formazan, in cell work by metabolically active cells.
A further series relates to ERK1/2. The series is described as follows: Western blotting of phospho-ERK1/2 in HUVEC. The series is classed as cell-based, Human. A general note: In western blotting, separated proteins are transferred to a membrane and probed.
For series [2], the target named is T1, ERα (Homo sapiens, UniProt P03372).
T1 construct: purchased Invitrogen
T1 sequence (P03372 1-595): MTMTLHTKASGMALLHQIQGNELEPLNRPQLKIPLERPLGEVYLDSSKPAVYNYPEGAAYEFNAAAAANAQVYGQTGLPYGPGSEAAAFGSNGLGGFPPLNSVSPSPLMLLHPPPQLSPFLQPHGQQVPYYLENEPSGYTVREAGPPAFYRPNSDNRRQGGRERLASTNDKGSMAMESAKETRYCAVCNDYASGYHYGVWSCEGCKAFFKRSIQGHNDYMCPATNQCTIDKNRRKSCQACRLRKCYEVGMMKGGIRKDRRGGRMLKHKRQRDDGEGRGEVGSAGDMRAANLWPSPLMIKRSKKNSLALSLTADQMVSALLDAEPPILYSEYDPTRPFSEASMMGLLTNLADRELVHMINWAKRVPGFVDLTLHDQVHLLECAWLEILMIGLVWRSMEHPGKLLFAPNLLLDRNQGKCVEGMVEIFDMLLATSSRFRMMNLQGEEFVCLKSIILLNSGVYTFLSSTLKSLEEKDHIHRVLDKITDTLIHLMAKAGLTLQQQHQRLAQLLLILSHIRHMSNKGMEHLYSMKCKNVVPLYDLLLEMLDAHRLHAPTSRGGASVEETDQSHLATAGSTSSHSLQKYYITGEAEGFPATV
The series is described as follows: ER fluorescence polarization competitive binding assay (Fluormone ES2 displacement), ERα. The method, then: (§3) The binding affinity of calycosin to ER-α and β was evaluated by the commercially available competitor assay (Invitrogen, Carlasbad, CA) according to the manufacturer's instructions. In brief, ER was added to fluorescently tagged ER ligand (Fluormone™ ES2) to form ER/Fluormone™ ES2 complexes with a high fluorescent polarization value. Displacement of fluorescently tagged ligands by unlabeled ligands decreased fluorescent polarization, resulting in a low value. In this system, changes in intensity of polarization reflect displacement of fluorescently tagged ligands. […] Plates were incubated at room temperature for 2 h and fluorescent polarization values measured using a Multilabel Counter (Perkin Elmer, Singapore).
(In general: Polarisation of emitted light reports the rotation of a fluorescent probe.)

The target of series [3] is T2, ERα (Homo sapiens, UniProt P03372).
T2 sequence (P03372 311-547 limits assumed): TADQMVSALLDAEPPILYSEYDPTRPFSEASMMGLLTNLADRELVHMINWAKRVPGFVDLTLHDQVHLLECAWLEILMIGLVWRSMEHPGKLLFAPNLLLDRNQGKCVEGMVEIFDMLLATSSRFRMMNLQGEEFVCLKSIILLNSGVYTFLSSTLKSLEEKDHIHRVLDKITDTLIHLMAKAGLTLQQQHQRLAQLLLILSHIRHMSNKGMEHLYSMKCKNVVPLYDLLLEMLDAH
In words: GeneBLAzer β-lactamase reporter-gene assay, agonist activity, ERα-UAS-bla GripTite cells.

For series [4], the system named is VEGFA, VEGFR1, Flk1A, Flk1B mRNA. The series is described as follows: mRNA expression in calycosin treated zebrafish by real-time PCR. The class given is in vivo. To be noted: 100 µM, 6 h. The method, then:
Zebrafish embryos at 72 hpf were treated with calycosin for 6 h. Total RNA was extracted from 30 zebrafish embryos of each treatment group using the RNeasy Mini Kit (Qiagen, USA) in accordance with the manufacturer's instructions. RNA was reverse transcribed to single-strand cDNA using SuperScript™ III First-Strand Synthesis System for RT–PCR (Invitrogen™, USA), followed by real-time PCR using the TaqMan® Universal PCR Master Mix and 250 nM custom TaqMan primers for zebrafish Flk1A, Flk1B, VEGFR1, VEGFA2 (Applied Biosystems, USA) in the ABI 7500 Real-Time PCR System (Applied Biosystems). The expression of Flk1A, VEGFA2 mRNA was normalized to the amount of bactin1, using the relative quantification method described by the manufacturer.
The zebrafish bactin1 primers were 5′-[…]-3′ (F) and 5′-[…]-3′(R) (Applied Biosystems, USA).
The zebrafish Flk1A (kdrl) primers were 5′- […]-3′ (F) and 5′- […]-3′(R) (Applied Biosystems, USA).
The zebrafish Flk1B (kdr) primers were 5′- […]-3′ (F) and 5′-[…]-3′(R) (Applied Biosystems, USA).
The zebrafish FLT1 primers were 5′-[…]-3′ (F) and 5′-[…]-3′(R) (Applied Biosystems, USA).
The zebrafish VEGFA2 primers were 5′-[…]-3′ (F) and 5′-[…]-3′ (R) (Applied Biosystems, USA).

In series [5] the target is T2, ERα. In words: GeneBLAzer β-lactamase reporter-gene assay, antagonist activity against E2, ERα-UAS-bla GripTite cells. To be noted: in presence of EC80 of 17-β-estradiol.
For series [6], the system named is endothelial cells in SIVs of Tg(fli1:nEGFP) zebrafish embryos. The series is described as follows: Endothelial cell number in SIVs of Tg(fli1:nEGFP) zebrafish embryos. The class given is in vivo. To be noted: calycosin 10, 30, 100 µM, 72 hpf for 24 h; SIV region. The method, then: as §2, with “Embryos were maintained using standard methods.” left out
as §1
Three random points in SIVs of Tg(fli1:EGFP) zebrafish embryos were chosen for vessel diameter measurement using AxiovisionLE 4.1. Numbers of endothelial cells in SIVs of Tg(fli1:nEGFP) zebrafish embryos were assessed by direct counting of the total number of green light points. […]

Series [7] has as its target T3, ERβ (Homo sapiens, UniProt Q92731). To be noted: percentage of maximum activation induced by 17-β-estradiol (10 µM).
Target sequence in this assay (Q92731 264-498 limits assumed): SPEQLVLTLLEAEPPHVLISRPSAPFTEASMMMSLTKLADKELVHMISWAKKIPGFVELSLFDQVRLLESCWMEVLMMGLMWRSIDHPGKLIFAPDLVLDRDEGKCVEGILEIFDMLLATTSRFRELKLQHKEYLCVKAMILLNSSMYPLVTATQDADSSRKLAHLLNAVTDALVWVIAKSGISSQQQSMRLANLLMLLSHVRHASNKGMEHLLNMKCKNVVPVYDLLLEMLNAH
Series [8] concerns the target T3, ERβ.
Target sequence in this assay (Q92731 264-498 limits assumed): as above
Series [9] concerns the target T3, ERβ. In words: biochemical. The method, then: as §3
Target sequence in this assay (Q92731 whole entry): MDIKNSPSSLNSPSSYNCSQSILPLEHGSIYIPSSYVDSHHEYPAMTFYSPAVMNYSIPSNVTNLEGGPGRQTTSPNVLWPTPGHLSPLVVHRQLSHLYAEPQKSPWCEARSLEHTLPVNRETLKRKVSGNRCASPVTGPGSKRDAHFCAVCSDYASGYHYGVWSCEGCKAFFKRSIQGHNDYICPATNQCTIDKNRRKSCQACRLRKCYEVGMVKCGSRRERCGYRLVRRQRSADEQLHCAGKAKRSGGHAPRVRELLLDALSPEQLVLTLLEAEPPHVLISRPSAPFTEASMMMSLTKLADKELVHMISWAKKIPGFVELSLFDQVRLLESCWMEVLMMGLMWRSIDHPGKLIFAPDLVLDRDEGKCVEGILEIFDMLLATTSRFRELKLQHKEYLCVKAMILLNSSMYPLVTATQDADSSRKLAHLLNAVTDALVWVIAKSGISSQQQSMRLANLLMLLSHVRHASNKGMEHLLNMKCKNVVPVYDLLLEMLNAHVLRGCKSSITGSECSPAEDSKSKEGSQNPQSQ

As for `O=C(Nc1ccc(Cl)cc1)c1ccccc1NCc1ccncc1` [VRI], the “effect on calycosin-induced angiogenesis (SIV diameter and endothelial cell number)” value in [1] (VRI 100 ng/ml with calycosin 100 µM, 72 hpf for 24 h) is reported as “sufficient to reverse the calycosin-induced angiogenic effects to control levels”. Also, the “effect on angiogenesis in zebrafish embryonic development, inhibitor alone, low concentration” value in [1] (VRI 100 ng/ml, 72 hpf for 24 h) is given as “no effect”. For the same compound, the “effect on angiogenesis in zebrafish embryonic development, inhibitor alone, high concentration” value in series [1] (VRI 1 µg/ml, 72 hpf for 24 h) is “caused significant (P<0.001) defects in angiogenesis”.
On to `C[C@]12CC[C@@H]3c4ccc(O)cc4CC[C@H]3[C@@H]1CC[C@@H]2O` [E2, 17-β-estradiol], for which the “highest non-toxic dose in zebrafish embryos” value in the series with zebrafish embryos was determined as 10 µM. Besides, in series [1] (72 hpf for 24 h), the “angiogenic effect in SIVs, comparison with classical SERMs” value (“angiogenic effect in SIVs, comparison” below) is reported as “no obvious changes”.
As to `C[C@]12CC[C@@H]3c4ccc(O)cc4C[C@@H](CCCCCCCCC[S+]([O-])CCCC(F)(F)C(F)(F)F)[C@H]3[C@@H]1CC[C@@H]2O` (stereo partly drawn) [ICI182, 780, reference compound], the “reduction of calycosin-induced HUVEC proliferation” value in the series with HUVEC (pre-treatment with ER inhibitor 30 µM before calycosin 100 µM) stood at 40%. Moreover, the “effect on calycosin-induced phosphorylation of ERK1/2” value in the series with ERK1/2 (ICI182, 780 30 µM, calycosin 100 µM) is reported as “suppressed phosphorylation of ERK1/2 to control levels”.
In the case of `COc1ccc(-c2coc3cc(O)ccc3c2=O)cc1O` [calycosin], in the series with HUVEC (calycosin 100 µM, Fig. 9A experiment), the “promotion of HUVEC proliferation” value came out at 67%. The “IC50 value relative to that of E2 (higher)” value at ERα [2] (binding to ERα and ERβ) was “approximately 10^4 fold”. Further, at ERα [2] (displacement of Fluormone ES2, 2 h room temperature), the IC50 was 58.1 µM. The same compound returned an EC50 on ERα [3] of 2.47 µM. Also, on ERα [3] (agonist activity assay), the “increase in maximal activation at ERα compared with ERβ” value is listed as 2 fold and the “reduction in EC50 value at ERα compared with ERβ (ERα selectivity)” value was determined as 2 fold. In addition, the “maximum agonistic activity at ERα” value on ERα [3] (percentage of maximum activation induced by 17-β-estradiol (10 µM)) was determined as 14.6%. Further, in the series with ERK1/2 (calycosin 100 µM), the “time at which phosphorylation of ERK1/2 reached a plateau” value fell in the range of 30 to 60 min. Moreover, the “phosphorylation of ERK1/2, concentration dependence” value in the series on ERK1/2 (calycosin 10, 30, 100 µM for 30 min, maximum at 100 µM) is “enhanced in a dose-dependent manner”. The “VEGFA mRNA expression level compared to the control” value in series [4] (embryos at 72 hpf, increase trend) is recorded as 1.2 fold. In addition, in [4] (P<0.001), the “Flk1A mRNA expression increase” value is listed as 0.8 fold, the “Flk1B mRNA expression increase” value stood at 0.9 fold and the “VEGFR1 mRNA expression increase” value is 1.1 fold. At ERα [5], the “maximum inhibition against E2 at ERα” value was found to be 46%. Moreover, the “increase in endothelial cells population compared with the control” value in series [6] is listed as “approximately 1.5 times”. In addition, at ERβ [7], the “maximum agonistic activity at ERβ” value was 8.6%. The “reduction in IC50 value at ERβ compared with ERα” value on ERβ [8] turned out to be 2 fold. In addition, on ERβ [8] (antagonist activity assay), the “increase in maximal inhibition at ERβ compared with ERα” value is recorded as 2 fold. In addition, the “maximum inhibition against E2 at ERβ” value at ERβ [8] (in presence of EC80 of 17-β-estradiol) worked out at 82%. In addition, at ERβ [9], the IC50 came out at 32.4 µM. Also, in [1] (calycosin 10, 30, 100 µM, 72 hpf to 96 hpf, vs 0.1% DMSO control, P<0.05 and P<0.001), the “diameter of SIVs” value is on record as “increased in a dose-dependent manner”. Moreover, in [1] (72 hpf for 24 h), the “angiogenic effect in SIVs, comparison” value was “significant angiogenic effect”.
Turning to `CC/C(=C(\c1ccccc1)c1ccc(OCCN(C)C)cc1)c1ccccc1` [tamoxifen], in the series on zebrafish embryos, the “highest non-toxic dose in zebrafish embryos” value came to 3 µM. Moreover, the “angiogenic effect in SIVs, comparison” value in series [1] (72 hpf for 24 h) is on record as “no obvious changes”.
The corresponding values for `O=C(c1ccc(OCCN2CCCCC2)cc1)c1c(-c2ccc(O)cc2)sc2cc(O)ccc12` [raloxifene] are 10 µM and “no obvious changes”.

A word on the IC50: it is the midpoint of a concentration-inhibition curve. A high value points to a need for much substance. The term EC50 denotes the concentration giving half of the maximal effect.
